“And” between values parts separate entries of the source, which are not always exact repeats. Equal entries are not always repeated. Where two headings read alike, the source gives them in different places.
How the values were obtained:
[1] = molecular target: T1, glutathione S-transferase (GST)-fused full-length human Syk protein (Homo sapiens, UniProt P43405); assay: Syk enzyme assay; assay type: biochemical
T1 construct: (GST)-fused full-length human Syk protein; GST (glutathione S-transferase); purchased Carna Biosciences
How it was run: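 Baculovirus-expressed enzyme (1.2 ng) was preincubated with compound in HEPES pH 7.0/MgCl2/DTT buffer, 2 min shaking then 13 min at room temperature. Biotin-EDPDYEWPSA-NH2 (0.4 μM final) and ATP (27 μM final) were added for 40 min at room temperature. EDTA stop, streptavidin-XL/PT66-K TR-FRET at 615/665 nm gave IC50.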

THP-1 cells = assay: TNFα generation assay; assay type: cell-based, human; settings: Homo sapiens
How it was run: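 Secreted TNFα in supernatant quantified by ELISA or AlphaLISA after 7 h culture on human IgG-coated wells (10 μg/ml coating). Cells were IFN-γ-differentiated THP-1 (10 ng/ml, 2 days), exposed to compound for 30 min at room temperature before plating.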

[2] = Syk enzyme assay, Test Example 1, read-out: IC50 of Syk-inhibitory activity
[3] = THP-1, THP-1 cells, Table 22, read-out: IC50 in TNFα generation assay
[4] = read-out: Syk-inhibitory activity (IC50)
[5] = THP-1, 7 h, IFN-γ-differentiated THP-1 cells on human IgG-coated plate, cultured 7 hours, read-out: TNFα generation inhibitory activity (IC50)

| SMILES | IC50 [1, 2] | IC50 (THP-1 cells; [3]) [nM] | IC50 [1, 4] [nM] | IC50 (THP-1 cells; [5]) [nM] |
| --- | --- | --- | --- | --- |
| COc1nn(C)c2ccc(Nc3nc(N[C@H](C4CC4)[C@H](C)N)c(F)cc3C(N)=O)cc12 [Example 006-589, 6-(((1R,2S)-2-amino-1-cyclopropylpropyl)amino)-5-fluoro-2-((3-methoxy-1-methyl-1H-indazol-5-yl)amino)nicotinamide] | < 10 nM | 65 to 130 |  |  |
| CCOc1nn(CC)c2ccc(Nc3nc(N[C@@H]4CCCC[C@@H]4N)c(F)cc3C(N)=O)cc12 [Example 006-590, 6-(((1R,2S)-2-aminocyclohexyl)amino)-2-((3-ethoxy-1-ethyl-1H-indazol-5-yl)amino)-5-fluoronicotinamide] | < 10 nM | 130 to 200 |  |  |
| CCOc1nn(CC)c2ccc(Nc3nc(N[C@H](CC4CC4)[C@H](C)N)c(F)cc3C(N)=O)cc12 [Example 006-591, 6-(((2R,3S)-3-amino-1-cyclopropylbutan-2-yl)amino)-2-((3-ethoxy-1-ethyl-1H-indazol-5-yl)amino)-5-fluoronicotinamide] | < 10 nM | 130 to 200 |  |  |
| CCOc1nn(CC)c2ccc(Nc3nc(N[C@H](CC(C)C)[C@H](C)N)c(F)cc3C(N)=O)cc12 [Example 006-592, 6-(((2S,3R)-2-amino-5-methylhexan-3-yl)amino)-2-((3-ethoxy-1-ethyl-1H-indazol-5-yl)amino)-5-fluoronicotinamide] | < 10 nM | 130 to 200 |  |  |
| CCOc1nn(CC)c2ccc(Nc3nc(N[C@H](CC)[C@H](C)N)c(F)cc3C(N)=O)cc12 [Example 006-593, 6-(((2S,3R)-2-aminopentan-3-yl)amino)-2-((3-ethoxy-1-ethyl-1H-indazol-5-yl)amino)-5-fluoronicotinamide] | < 10 nM | 65 to 130 |  |  |
| CC[C@@H](Nc1nc(Nc2ccc3c(c2)c(-n2cccn2)nn3C)c(C(N)=O)cc1F)[C@H](C)N [Example 006-596, 6-(((2S,3R)-2-aminopentan-3-yl)amino)-5-fluoro-2-((1-methyl-3-(1H-pyrazol-1-yl)-1H-indazol-5-yl)amino)nicotinamide] | < 10 nM | 65 to 130 |  |  |
| Cc1cc(Nc2nc(N[C@H](C3CCC3)[C@H](C)N)c(F)cc2C(N)=O)cnc1C [Example 006-597, 6-(((1R,2S)-2-amino-1-cyclobutylpropyl)amino)-2-((5,6-dimethylpyridin-3-yl)amino)-5-fluoronicotinamide] | < 10 nM | 65 to 130 |  |  |
| Cc1ncc(Nc2nc(N[C@H](C3CCC3)[C@H](C)N)c(F)cc2C(N)=O)cc1-n1nccn1 [Example 006-598, 6-(((1R,2S)-2-amino-1-cyclobutylpropyl)amino)-5-fluoro-2-((6-methyl-5-(2H-1,2,3-triazol-2-yl)pyridin-3-yl)amino)nicotinamide] | < 10 nM | 130 to 200 |  |  |
| COc1cc(Nc2nc(NCCN)c(F)cc2C(N)=O)cc(OC)c1 [Example 008-001] | 10 to 50 nM | 65 to 130 |  |  |
| NC(=O)c1cc(F)c(NC2CCCCC2N)nc1Nc1cncc2ccccc12 (centres unmarked) [Example 010-001] | < 10 nM | < 65 |  |  |
| NC(=O)c1cc(F)c(NC2CCCCC2N)nc1Nc1cnc2ncccc2c1 (centres unmarked) [Example 010-002] | 10 to 50 nM | 130 to 200 |  |  |
| CC(C)C[C@@H](Nc1nc(Nc2ccc3ncccc3c2)c(C(N)=O)cc1F)C(N)=O [Example 11, 6-(((2R)-1-amino-4-methyl-1-oxopentan-2-yl)amino)-5-fluoro-2-(quinolin-6-ylamino)nicotinamide] |  |  | ≤ 1000 | ≤ 200 |
| CC(C)C[C@@H](Nc1nc(Nc2ccc3ncsc3c2)c(C(N)=O)cc1F)C(N)=O [Example 012-005] | 10 to 50 nM | 130 to 200 |  |  |
| NC(=O)c1cc(F)c(N[C@@H](C(N)=O)c2ccccc2)nc1Nc1ccc2ncccc2c1 [Example 12-8, 6-(((1R)-2-amino-2-oxo-1-phenylethyl)amino)-5-fluoro-2-(quinolin-6-ylamino)nicotinamide] |  |  | ≤ 1000 | ≤ 200 |
| CC(C)C[C@@H](Nc1nc(Nc2ccc3ncccc3c2)c(C(N)=O)cc1F)C(N)=O [Example 012-009] | < 10 nM | 65 to 130 |  |  |
| NC(=O)c1cc(F)c(N[C@@H](C(N)=O)c2ccccc2)nc1Nc1cnc2ccccc2c1 [Example 012-013] | 10 to 50 nM | 130 to 200 |  |  |
| CC[C@@H](Nc1nc(Nc2ccc3ncccc3c2)c(C(N)=O)cc1F)C(N)=O [Example 012-031] | 10 to 50 nM | 65 to 130 |  |  |
| C[C@@H](Nc1nc(Nc2ccc3ncccc3c2)c(C(N)=O)cc1F)C(N)=O [Example 012-036, (R)-6-((1-amino-1-oxopropan-2-yl)amino)-5-fluoro-2-((quinolin-6-yl)amino)nicotinamide] | 10 to 50 nM | 65 to 130 |  |  |
| C[C@H](N)CNc1nc(Nc2ccc3ncccc3c2)c(C(N)=O)cc1F [Example 13, 6-((2S)-2-aminopropylamino)-5-fluoro-2-(quinolin-6-ylamino)nicotinamide] |  |  | ≤ 1000 | ≤ 200 |
| CC(C)C(N)CNc1nc(Nc2ccc3ncccc3c2)c(C(N)=O)cc1F (centres unmarked) [Example 014-002] | < 10 nM | < 65 |  |  |

| SMILES | IC50 [1, 2] | IC50 (THP-1 cells; [3]) [nM] | IC50 [1, 4] [nM] | IC50 (THP-1 cells; [5]) [nM] |
| --- | --- | --- | --- | --- |
| NC(=O)c1cc(F)c(NCC(N)c2ccccc2)nc1Nc1ccc2ncccc2c1 (centres unmarked) [Example 014-005] | < 10 nM | < 65 |  |  |
| CC(N)CNc1nc(Nc2ccc3ncccc3c2)c(C(N)=O)cc1F (centres unmarked) [Example 014-009] | < 10 nM | < 65 |  |  |
| NC(=O)c1cc(F)c(NCC(N)C2CC2)nc1Nc1ccc2ncccc2c1 (centres unmarked) [Example 014-013, 6-((2-amino-2-cyclopropylethyl)amino)-5-fluoro-2-((quinolin-6-yl)amino)nicotinamide] | 10 to 50 nM | 130 to 200 |  |  |
| NC(=O)c1cc(F)c(NCC2(N)CC2)nc1Nc1ccc2ncccc2c1 [Example 014-014, 6-((1-aminocyclopropylmethyl)amino)-5-fluoro-2-((quinolin-6-yl)amino)nicotinamide] | < 10 nM | 130 to 200 |  |  |
| NC(=O)c1cc(F)c(NCC(N)C(F)(F)F)nc1Nc1ccc2ncccc2c1 (centres unmarked) [Example 014-016, 6-((2-amino-3,3,3-trifluoropropyl)amino)-5-fluoro-2-((quinolin-6-yl)amino)nicotinamide] | < 10 nM | 65 to 130 |  |  |
| NC(=O)c1cc(F)c(NC[C@@H](N)c2ccccn2)nc1Nc1ccc2ncccc2c1 [Example 014-017, (R)-6-((2-amino-2-(pyridin-2-yl)ethyl)amino)-5-fluoro-2-((quinolin-6-yl)amino)nicotinamide] | < 10 nM | 130 to 200 |  |  |
| NC(=O)c1cc(F)c(NC[C@@H](N)c2ccsc2)nc1Nc1ccc2ncccc2c1 [Example 014-019, (S)-6-((2-amino-2-(thiophene-3-yl)ethyl)-amino)-5-fluoro-2-((quinolin-6-yl)amino)-nicotinamide] | < 10 nM | 65 to 130 |  |  |
| NC(=O)c1cc(F)c(NC2CCCCC2N)nc1Nc1cncc(NC(=O)c2cccc(F)c2F)c1 (centres unmarked) [Example 027-030] | 10 to 50 nM | 130 to 200 |  |  |
| NC(=O)c1cc(F)c(NC2CCCCC2N)nc1Nc1cncc(NC(=O)c2ccco2)c1 (centres unmarked) [Example 027-033] | < 10 nM | 130 to 200 |  |  |
| NC(=O)c1cc(Cl)c(NC2CCCCC2N)nc1Nc1cnc2ccccc2c1 (centres unmarked) [Example 035-001] | < 10 nM | 65 to 130 |  |  |
| NC(=O)c1cc(Br)c(NC2CCCCC2N)nc1Nc1cnc2ccccc2c1 (centres unmarked) [Example 035-002] | < 10 nM | 65 to 130 |  |  |
| Cc1cccc(Nc2nc(NC3CCCCC3N)c(Cl)cc2C(N)=O)c1 (centres unmarked) [Example 035-005] | < 10 nM | 130 to 200 |  |  |
| Cc1cncc(Nc2nc(NC3CCCCC3N)c(Br)cc2C(N)=O)c1 (centres unmarked) [Example 035-007] | < 10 nM | 65 to 130 |  |  |
| Cc1cc(C)cc(Nc2nc(NCCN)c(Br)cc2C(N)=O)c1 [Example 035-009] | < 10 nM and 10 to 50 nM | 130 to 200 |  |  |
| NC(=O)c1cc(F)c(N[C@@H]2CCCC[C@@H]2N)nc1Nc1cccc2ncccc12 [Example 37-1, 6-((1R,2S)-2-aminocyclohexylamino)-5-fluoro-2-((quinolin-5-yl)amino)nicotinamide] | < 10 nM | < 65 |  |  |
| NC(=O)c1cc(F)c(N[C@@H]2CCCC[C@@H]2N)nc1Nc1cncc2ccccc12 [Example 37-2, 6-((1R,2S)-2-aminocyclohexylamino)-5-fluoro-2-((isoquinolin-4-yl)amino)nicotinamide] | < 10 nM | < 65 |  |  |
| NC(=O)c1cc(F)c(N[C@@H]2CCCC[C@@H]2N)nc1Nc1ccc2ncccc2c1 [Example 37-3, 6-((1R,2S)-2-aminocyclohexylamino)-5-fluoro-2-((quinolin-6-yl)amino)nicotinamide] | < 10 nM | < 65 |  |  |
| NC(=O)c1cc(F)c(N[C@@H]2CCCC[C@@H]2N)nc1Nc1cnc2ccccc2c1 [Example 37-4, 6-((1R,2S)-2-aminocyclohexylamino)-5-fluoro-2-((quinolin-3-yl)amino)nicotinamide] | < 10 nM | < 65 |  |  |
| Cn1ncc2cc(Nc3nc(N[C@@H]4CCCC[C@@H]4N)c(F)cc3C(N)=O)ccc21 [Example 37-5, 6-((1R,2S)-2-aminocyclohexylamino)-5-fluoro-2-((1-methyl-1H-indazol-5-yl)amino)-nicotinamide] | < 10 nM | 65 to 130 |  |  |
| CC[C@H](CN)Nc1nc(Nc2ccc3ncccc3c2)c(C(N)=O)cc1F [Example 39-2, (R)-6-((1-aminobutan-2-yl)amino)-5-fluoro-2-((quinolin-6-yl)amino)nicotinamide] | < 10 nM | < 65 |  |  |

— patent US8895585B2, “Nicotinamide derivative or salt thereof” (FUJIFILM Corporation, priority 2010, dated 2014)
